Measurements: paper PMC10648877, “Novel Substituted Azoloazines with Anticoagulant Activity” (International Journal of Molecular Sciences, 2023)
Where “and” joins values, the source holds several entries; their conditions need not be identical. Identical values can stand only once.

Experiments:
[1] = test system: platelet-poor plasma (PPP); assay: Activated partial thromboplastin time (APTT), rabbit blood coagulogram in vitro; format: biochemical; settings: 100 μM; for APTT: M ± m, n = 6;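 on all read-outs here: clotting time read chronometrically on a hemocoagulometer with commercial reagent kits, one of several coagulogram parameters alongside thrombin and prothrombin time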
Description: Test compounds and the reference drug were evaluated at a concentration of 100 μM. Effect on rabbit blood coagulograms in vitro was determined chronometrically with a SOLAR hemocoagulometer (Minsk, Belarus) using commercial kits (Technology-Standard, Barnaul, Russia) as per the manufacturer’s instructions. The following parameters were determined: activated partial thromboplastin time, thrombin time, and prothrombin time.

LPS-treated PPP [2] = assay: APTT, rabbit blood treated with LPS in vitro (hypercytokinemia); format: biochemical; settings: 100 μM; for APTT: rabbit blood treated with LPS in vitro
Description: (§1) Hypercytokinemia conditions were modeled by incubation of whole blood with S. typhimurium LPS (Sigma Aldrich, St. Louis, MO, USA) at a final concentration of 20 ng/mL and subsequent preparation of PPP.

LPS-treated PPP [3] = assay: Thrombin time, rabbit blood treated with LPS in vitro (hypercytokinemia); format: biochemical; settings: for Δ % of Thrombin Time Prolongation Relative To Control + LPS: with LPS; for prolongation of thrombin time relative to LPS-treated blood control: LPS-treated rabbit blood in vitro
Description: as §1
(§2) The calculation of EC50 (effective concentration that prolongs the time of clot formation by 50%) was performed using linear regression analysis.

LPS-treated PPP [4] = assay: Prothrombin time, rabbit blood treated with LPS in vitro (hypercytokinemia); format: biochemical; settings: 100 μM
Description: as §1

[5] = test system: platelet-poor plasma (PPP); assay: Ecarin clotting time in vitro; format: biochemical; settings: for EC50: concentration range 100 to 1 μM
Description: The ecarin clotting time was designed for the determination of antithrombin anticoagulant activity in platelet-poor plasma. Venous blood was collected into a 15 mL Falcon type plastic tube with 3.8% sodium citrate solution (0.5 mL of sodium citrate per 5 mL of blood), centrifuged on a CM-6M centrifuge (Elmi, Riga, Latvia) at room temperature from 18 to 25 °C for 15 min at 3000 rpm (1200× g). The obtained plasma was withdrawn using an automatic pipette and transferred to a separate clean, dry plastic tube. After that, the obtained plasma was recentrifuged under the same conditions and the upper third of the plasma was taken for analysis.
The ecarin stock solution (STA-ECT, Stago, Düsseldorf, Germany) was prepared according to the manufacturer’s instructions and diluted to 4 units/mL with HEPES-buffered saline (0.2 M) containing 0.025 M calcium chloride.
The tested samples were investigated in the concentration range from 100 to 1 μM for IC50 determination.
Prepared reagents and platelet-poor plasma were heated to 37 °C. The assay was performed on a Solar CGL2120 coagulometer (Belarus), adding 50 µL of the reagent ecarin to 100 µL of PPP and recording the clotting time.
as §2

coagulograms of rats [6] = assay: APTT after single intragastric administration, rats without hypercytokinemia; format: in vivo, rat; settings: dabigatran etexilate 12 mg/kg; for prolongation of APTT compared to the control: intact rats, 2 h after intragastric administration, 5d 5.5 mg/kg; for APTT: rats without hypercytokinemia, single intragastric dose, 2 h, 5d 5.5 mg/kg (equimolar)
Description: (§3) Distilled water was used as a solvent. In all experiments, control animals were injected with an equivalent volume of a vehicle. The reference drug dabigatran etexilate was administered to rats 2 h before the study at a 12 mg/kg dose (equivalent to the human dose, taking into account the interspecies conversion factor). Compound 5d was administered to rats 2 h before the study in a 5.5 mg/kg dose, equimolar to the dose of dabigatran etexilate.
(§4) To stabilize the blood, a 3.8% aqueous solution of sodium citrate (pH 6.0) was used in a ratio of 9:1. Coagulogram parameters of platelet-poor plasma were measured with a SOLAR coagulometer according to the methods described above.

coagulograms of rats [7] = assay: Thrombin time after single intragastric administration, rats without hypercytokinemia; format: in vivo, rat; settings: dabigatran etexilate 12 mg/kg; for increase of thrombin time relative to intact control: intact rats, 2 h after intragastric administration, 5d 5.5 mg/kg; for TT: rats without hypercytokinemia, single intragastric dose, 2 h, 5d 5.5 mg/kg (equimolar)
Description: as §3, §4

coagulograms of rats [8] = assay: Prothrombin time after single intragastric administration, rats without hypercytokinemia; format: in vivo, rat; settings: for PT: single intragastric dose, 2 h, dabigatran etexilate 12 mg/kg, 5d 5.5 mg/kg (equimolar)
Description: as §3, with “factor).” for “factor). Compound 5d was administered to rats 2 h before the study in a 5.5 mg/kg dose, equimolar to the dose of dabigatran etexilate.”
(§5) Coagulogram parameters of platelet-poor plasma were measured with a SOLAR coagulometer according to the methods described above.

coagulograms of rats [9] = assay: APTT after single intragastric administration, rats with hypercytokinemia (LPS); format: in vivo, rat; settings: dabigatran etexilate 12 mg/kg; for prolongation of APTT in relation to the LPS control group: LPS-injected rats, 5d 5.5 mg/kg intragastric; for APTT: rats with hypercytokinemia (LPS 2 mg/kg i.v.), single intragastric dose, 2 h, 5d 5.5 mg/kg
Description: as §3, §4
(§6) Hypercytokinemia conditions were modeled by an intravenous injection of S. typhimurium LPS (Sigma Aldrich, St. Louis, MO, USA) at a final dose of 2 mg/kg into the tail vein of the rats 2 h before the administration of the substances. The evaluation of anticoagulant activity was conducted according to the methods described above.

coagulograms of rats [10] = assay: Thrombin time after single intragastric administration, rats with hypercytokinemia (LPS); format: in vivo, rat; settings: for increase of thrombin time in relation to the LPS control group: LPS-injected rats, 5d 5.5 mg/kg intragastric; for antithrombin effect under systemic inflammation reaction versus its absence: rats, single intragastric administration
Description: as §3, §4, §6

coagulograms of rats [11] = assay: Prothrombin time after single intragastric administration, rats with hypercytokinemia (LPS); format: in vivo, rat; settings: for PT: rats with hypercytokinemia (LPS 2 mg/kg i.v.), single intragastric dose, 2 h, dabigatran etexilate 12 mg/kg, 5d 5.5 mg/kg; for effect on prothrombin time: rats with systemic inflammatory reaction (LPS)
Description: as §3, with “factor).” for “factor). Compound 5d was administered to rats 2 h before the study in a 5.5 mg/kg dose, equimolar to the dose of dabigatran etexilate.”
as §5, §6

[12] = test system: platelet-poor plasma (PPP); assay: Thrombin time (TT), rabbit blood coagulogram in vitro; format: biochemical; settings: for Δ% of Thrombin Time Prolongation Relative to Control / EC50: without LPS; for TT: M ± m, n = 6; for EC50: concentration that prolongs clot formation time by 50%, read-out: EC50, μM (thrombin time prolongation)
[13] = test system: platelet-poor plasma (PPP); assay: Prothrombin time (PT), rabbit blood coagulogram in vitro; settings: 100 μM; for PT: M ± m, n = 6;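 on all read-outs here: clotting time read chronometrically on a hemocoagulometer using commercial reagent kits, with dabigatran etexilate at the same concentration as reference anticoagulant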
Description: The study was performed on platelet-poor plasma (PPP) stabilized with a 3.8% sodium citrate solution in a ratio of 9:1 according to the method described in [34]. Dabigatran etexilate (Boehringer Ingelheim Pharma GmbH and Co., Ingelheim am Rhein, Germany) was used as the reference drug. Test compounds and the reference drug were evaluated at a concentration of 100 μM. Effect on rabbit blood coagulograms in vitro was determined chronometrically with a SOLAR hemocoagulometer (Minsk, Belarus) using commercial kits (Technology-Standard, Barnaul, Russia) as per the manufacturer’s instructions. The following parameters were determined: activated partial thromboplastin time, thrombin time, and prothrombin time.

[14] = rats with hypercytokinemia (LPS 2 mg/kg i.v.), single intragastric dose, 2 h, dabigatran etexilate 12 mg/kg, 5d 5.5 mg/kg

Row | SMILES | increase of APTT relative to the control [1] | APTT [1] | APTT (LPS-treated PPP [2]) | Δ % of Thrombin Time Prolongation Relative To Control + LPS (LPS-treated PPP [3]; 1 μM) | Δ % of Thrombin Time Prolongation Relative To Control + LPS (LPS-treated PPP [3]; 5 μM) | Δ % of Thrombin Time Prolongation Relative To Control + LPS (LPS-treated PPP [3]; 10 μM) | prolongation of thrombin time relative to LPS-treated blood control (LPS-treated PPP [3]; 100 μM) | PT (LPS-treated PPP [4]) | ecarin clotting time ([5]; 1 μM) | ecarin clotting time ([5]; 10 μM) | EC50 [5] | prolongation of APTT compared to the control (coagulograms of rats [6]) | APTT (coagulograms of rats [6]) | increase of thrombin time relative to intact control (coagulograms of rats [7]) | TT (coagulograms of rats [7]) | PT (coagulograms of rats [8]) | prolongation of APTT in relation to the LPS control group (coagulograms of rats [9]) | APTT (coagulograms of rats [9]) | increase of thrombin time in relation to the LPS control group (coagulograms of rats [10]; dabigatran etexilate 12 mg/kg) | antithrombin effect under systemic inflammation reaction versus its absence (coagulograms of rats [10]) | other results
1 | C1=C(c2cccs2)n2ncnc2NC1c1cccs1 (stereo not drawn) [Compound 5d, 7,5-Di(2-thienyl)-4,5-dihydro-[1,2,4]triazolo[1,5-a]pyrimidine] | 1.3 times | 61.78 ± 4.58 s | 61.78 ± 4.58 s | 56.3% and 56.3 ± 1.1 % | 234.1% and 234.1 ± 4.2 ^#$ % | 354.1% and 354.1 ± 6.5 ^#$ % | 17.0 times | 14.08 ± 0.4 s | 40.2 s | 50.5 s | 17900 nM | 1.5 times | 59.2 ± 8.3 s | 5.6 times | 325.3 ± 5.1 s | 24.5 ± 1.1 s | 1.6 times | 28.7 ± 1.0 s | 14.5 times | twice as pronounced | ecarin clotting time ([5]; 100 μM): 81.3 s; TT, s (coagulograms of rats [10]; [14]): 640.3 ± 7.4 ^#$ s; PT (coagulograms of rats [11]): 26.4 ± 1.4 s; effect on prothrombin time (coagulograms of rats [11]): neither the test compound nor dabigatran etexilate had an effect; Δ% of Thrombin Time Prolongation Relative to Control ([12]; 1 μM): 46.5% and 46.5 ± 6.7 %; Δ% of Thrombin Time Prolongation Relative to Control ([12]; 5 μM): 194.1% and 194.1 ± 10.0 %; Δ% of Thrombin Time Prolongation Relative to Control ([12]; 10 μM): 467.1% and 467.1 ± 14.4 %; TT ([12]; rabbit blood in vitro, 100 μM): 154.43 ± 11.14 s; prolongation of thrombin time exceeding dabigatran etexilate ([12]; rabbit blood in vitro, 100 μM, versus reference drug): 2.2 times; EC50 [12]: 1.25 µM and 1.3 µM; effect on prothrombin time [13]: did not affect the prothrombin time; PT [13]: 14.08 ± 0.4 s
2 | CCCCCCOC(=O)N=C(N)c1ccc(NCc2nc3cc(C(=O)N(CCC(=O)OCC)c4ccccn4)ccc3n2C)cc1 [Dabigatran etexilate, reference compound] | 1.6 times | 75.26 ± 2.61 s | 135.13 ± 15.17 s | 51.7% and 51.7 ± 0.5% | 208.6% | 292.0% | 14.0 times | 15.73 ± 0.20 s | 41.6 s | 54.1 s | 10500 nM | 3.6 times | 137.5 ± 2.2 s | 10.5 times | 603.9 ± 14.2 s | 31.2 ± 1.3 s | 2.2 times | 41.0 ± 2.0 s | 12.8 times | did not change | prolongation of APTT relative to LPS-treated blood (LPS-treated PPP [2]; LPS-treated rabbit blood in vitro): 2.3 times; TT (LPS-treated PPP [3]; rabbit blood treated with LPS in vitro, 100 μM): 125.45 ± 1.54 s; lengthening of ecarin clotting time compared to control ([5]; 100 μM): 2.3 fold; effect on prothrombin time (coagulograms of rats [8]): did not change; TT (coagulograms of rats [10]; [14]): 566.1 ± 11.5 s; PT (coagulograms of rats [11]): 28.1 ± 1.0 s; effect on prothrombin time (coagulograms of rats [11]): neither the test compound nor dabigatran etexilate had an effect; Δ% of Thrombin Time Prolongation Relative to Control ([12]; 0.1 μM): 1.4 ± 0.4 %; Δ% of Thrombin Time Prolongation Relative to Control ([12]; 1 μM): 42.3 ± 5.6 %; Δ% of Thrombin Time Prolongation Relative to Control ([12]; 1 μM, listed as dabigatran etexilate): 42.3%; Δ% of Thrombin Time Prolongation Relative to Control ([12]; 5 μM): 176.1 ± 15.3 %; Δ% of Thrombin Time Prolongation Relative to Control ([12]; 5 μM, listed as dabigatran etexilate): 176.1%; thrombin time ([12]; 10 μM, intact PPP): 46.8 s; Δ% of Thrombin Time Prolongation Relative to Control ([12]; 10 μM): 302.0 ± 34.4 %; Δ% of Thrombin Time Prolongation Relative to Control ([12]; 10 μM, listed as dabigatran etexilate): 302.0%; increase of thrombin time relative to the control ([12]; rabbit blood in vitro, 100 μM): 6.0 times; TT ([12]; rabbit blood in vitro, 100 μM): 70.23 ± 3.15 s; EC50 [12]: 1.4 µM; effect on prothrombin time [13]: without changing the prothrombin time; PT [13]: 14.20 ± 0.38 s
